IC50 and inhibition data for 31 compounds are collected here from ChEMBL document CHEMBL5236590, “Discovery of Novel N-(5-(Pyridin-3-yl)-1H-indazol-3-yl)benzamide Derivatives as Potent Cyclin-Dependent Kinase 7 Inhibitors for the Treatment of Autosomal Dominant Polycystic Kidney Disease” (J Med Chem, 2022).

The structures appear in SMILES notation.

The target of test [1] is T1, Cyclin-dependent kinase 7 (Homo sapiens, UniProt P50613). As to the kind of experiment: Inhibition of CDK7 (unknown origin) assessed as phosphorylation of ULight 4EBP1 peptide substrate measured after 2 hrs by FRET-based LANCE Ultra KinSelect assay.
T1 sequence (P50613 whole entry): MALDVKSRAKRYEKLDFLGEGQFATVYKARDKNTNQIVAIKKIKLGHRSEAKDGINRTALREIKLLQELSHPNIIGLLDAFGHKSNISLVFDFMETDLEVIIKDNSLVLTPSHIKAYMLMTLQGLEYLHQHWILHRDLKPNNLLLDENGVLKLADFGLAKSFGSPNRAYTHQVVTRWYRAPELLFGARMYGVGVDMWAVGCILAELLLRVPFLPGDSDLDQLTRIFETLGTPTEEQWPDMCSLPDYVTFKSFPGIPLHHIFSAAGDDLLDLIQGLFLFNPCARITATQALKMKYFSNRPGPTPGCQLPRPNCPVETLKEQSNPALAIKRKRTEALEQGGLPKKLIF
For test [2], the target named is T2, Cyclin-dependent kinase 2 (Homo sapiens, UniProt P24941). As to the kind of experiment: Inhibition of CDK2 (unknown origin) assessed as phosphorylation of ULight 4EBP1 peptide substrate measured after 2 hrs by FRET-based LANCE Ultra KinSelect assay.
In test [3] the test system is THP-1. As to the kind of experiment: Cytotoxicity against human THP-1 cells assessed as cell viability measured after 24 hrs by CCK-8 assay. It counts as functional, cell-based. The following applies: THP-1, 24 h. In general terms: Tetrazolium dyes change colour on reduction, which living cells bring about.
Test [4] deals with T2, Cyclin-dependent kinase 2. Nature of the test: Inhibition of CDK2 (unknown origin) assessed as phosphorylation of ULight 4EBP1 peptide substrate at 10 uM measured after 2 hrs by FRET-based LANCE Ultra KinSelect assay.
The target in test [5] is T1, Cyclin-dependent kinase 7. Nature of the test: Inhibition of CDK7 (unknown origin) assessed as phosphorylation of ULight 4EBP1 peptide substrate at 10 uM measured after 2 hrs by FRET-based LANCE Ultra KinSelect assay relative to control.

As a reminder, the IC50 is the concentration at which inhibition is half-maximal. The inhibition is the percentage by which the read-out fell short of the control.

In the case of `Cc1cncc(-c2ccc3[nH]nc(NC(=O)c4ccccc4)c3c2)c1`, the 50% inhibitory concentration (IC50) in test [1] worked out at 2610 nM.

For the compound `C=CC(=O)Nc1ccc(C(=O)Nc2n[nH]c3ccc(-c4cncc(NC(=O)[C@@H](N)Cc5ccccc5)c4)cc23)cc1`, the half-inhibitory concentration (IC50) in test [1] was 7 nM; in test [2], 477 nM. In the case of `O=C(Nc1n[nH]c2ccc(-c3cncc(O)c3)cc12)c1ccccc1`, the IC50 in test [1] worked out at 7240 nM. `NCC(=O)Nc1cncc(-c2ccc3[nH]nc(NC(=O)c4ccccc4)c3c2)c1`: the IC50 in test [1] was 2490 nM. Turning to `O=C(Nc1n[nH]c2ccc(-c3cncc(NCCO)c3)cc12)c1ccccc1`, in test [1], the concentration for half-maximal inhibition (IC50) was 1710 nM. With `CN(C)C/C=C/C(=O)Nc1ccc(C(=O)Nc2cccc(Nc3ncc(Cl)c(-c4c[nH]c5ccccc45)n3)c2)cc1`, in test [3], the concentration for half-maximal inhibition (IC50) worked out at 77000 nM.

`N[C@@H](COc1cncc(-c2ccc3[nH]nc(NC(=O)c4ccccc4)c3c2)c1)Cc1ccccc1`: the half-inhibitory concentration (IC50) in test [1] was 2390 nM; in test [2], 499 nM. On to `O=C(Nc1n[nH]c2ccc(-c3cncc(NC[C@H](CO)c4ccccc4)c3)cc12)c1ccccc1`, for which the 50% inhibitory concentration (IC50) in test [1] turned out to be 1730 nM; in test [2] it was 577 nM. As for `NCCNc1cncc(-c2ccc3[nH]nc(NC(=O)c4ccccc4)c3c2)c1`, the IC50 in test [1] came out at 1560 nM.

Turning to `C=CC(=O)Nc1ccc(C(=O)Nc2n[nH]c3ccc(-c4cncc(NC[C@H](O)c5ccccc5)c4)cc23)cc1`, the half-inhibitory concentration (IC50) stood at 6 nM in test [1] and 918 nM in test [2]. As to `N[C@H](C(=O)Nc1cncc(-c2ccc3[nH]nc(NC(=O)c4ccccc4)c3c2)c1)c1ccccc1`, in test [1], the 50% inhibitory concentration (IC50) was found to be 3140 nM. The inhibition in test [4] amounted to 34%. For `CNC(=O)c1cncc(-c2ccc3[nH]nc(NC(=O)c4ccccc4)c3c2)c1`, in test [1], the IC50 worked out at 3780 nM. Regarding `O=C(Nc1n[nH]c2ccc(-c3cncc(NC[C@H](CO)Cc4ccccc4)c3)cc12)c1ccccc1`, the 50% inhibitory concentration (IC50) is 2640 nM in test [1] and 2400 nM in test [2]. With `O=C(Nc1n[nH]c2ccc(-c3cncc(NC[C@@H](CO)c4ccccc4)c3)cc12)c1ccccc1`, the 50% inhibitory concentration (IC50) in test [1] worked out at 710 nM; in test [2], 813 nM. As for `O=C(Nc1n[nH]c2ccc(-c3cncc(NC[C@@H](CO)Cc4ccccc4)c3)cc12)c1ccccc1`, the concentration for half-maximal inhibition (IC50) in test [1] is 670 nM; in test [2], 609 nM. On the same counts, the results for `N[C@H](COc1cncc(-c2ccc3[nH]nc(NC(=O)c4ccccc4)c3c2)c1)c1ccccc1` are 692 nM and 120 nM.

Consider `O=C(Nc1n[nH]c2ccc(-c3cncc(NC[C@@H](O)c4ccccc4)c3)cc12)c1ccccc1`, for which the IC50 was 440 nM in test [1] and 802 nM in test [2].

For `N[C@@H](Cc1ccccc1)C(=O)Nc1cncc(-c2ccc3[nH]nc(NC(=O)c4ccccc4)c3c2)c1`, the IC50 amounted to 1340 nM in test [1] and 1050 nM in test [2]. As for `N[C@@H](COc1cncc(-c2ccc3[nH]nc(NC(=O)c4ccccc4)c3c2)c1)c1ccccc1`, the IC50 in test [1] was 4920 nM. Further, the inhibition in test [4] was determined as 48%. As to `C=CC(=O)Nc1ccc(C(=O)Nc2n[nH]c3ccc(-c4cncc(N[C@H](CO)Cc5ccccc5)c4)cc23)cc1`, the half-maximal inhibitory concentration (IC50) turned out to be 5 nM in test [1] and 595 nM in test [2]. On to `N[C@H](Cc1ccccc1)C(=O)Nc1cncc(-c2ccc3[nH]nc(NC(=O)c4ccccc4)c3c2)c1`, for which the figures for the half-inhibitory concentration (IC50) in test [1] and in test [2] were 2070 nM and 550 nM, respectively. `NCCOc1cncc(-c2ccc3[nH]nc(NC(=O)c4ccccc4)c3c2)c1`: the IC50 in test [1] turned out to be 2000 nM. With `COc1cncc(-c2ccc3[nH]nc(NC(=O)c4ccccc4)c3c2)c1`, the concentration for half-maximal inhibition (IC50) in test [1] was found to be 5530 nM. On to `O=C(Nc1n[nH]c2ccc(-c3cccnc3)cc12)c1ccccc1`, for which the IC50 in test [1] was 7550 nM. As to `N[C@H](COc1cncc(-c2ccc3[nH]nc(NC(=O)c4ccccc4)c3c2)c1)Cc1ccccc1`, the concentration for half-maximal inhibition (IC50) in test [1] turned out to be 335 nM; in test [2] it was 97 nM. Turning to `N[C@@H](C(=O)Nc1cncc(-c2ccc3[nH]nc(NC(=O)c4ccccc4)c3c2)c1)c1ccccc1`, the inhibition in test [4] is 29%; in test [5], 34%.

Turning to `C=CC(=O)Nc1ccc(C(=O)Nc2n[nH]c3ccc(-c4cncc(N[C@H](CO)c5ccccc5)c4)cc23)cc1`, the values for the 50% inhibitory concentration (IC50) in test [1] and in test [2] were 19 nM and 756 nM, respectively. As to `NC[C@@H](CNc1cncc(-c2ccc3[nH]nc(NC(=O)c4ccccc4)c3c2)c1)c1ccccc1`, the IC50 in test [1] is 395 nM; in test [2], 190 nM. Take `Nc1cncc(-c2ccc3[nH]nc(NC(=O)c4ccccc4)c3c2)c1`: the inhibition in test [5] amounted to 45%. As to `O=C(Nc1n[nH]c2ccc(-c3cncc(NC[C@H](O)c4ccccc4)c3)cc12)c1ccccc1`, the IC50 in test [1] came to 311 nM; in test [2], 269 nM.

As to `C=CC(=O)Nc1ccc(C(=O)Nc2n[nH]c3ccc(-c4cncc(NC(=O)[C@@H](N)c5ccccc5)c4)cc23)cc1`, the half-maximal inhibitory concentration (IC50) in test [1] was found to be 64 nM.
